Tests used:
[1] = system: A2780CP70 (cisplatin-resistant ovarian cancer) cells; assay: MTT cell viability (cytotoxicity); format: cell-based; settings: 48 hours incubation, read-out: IC50 A2780 CP70 (cisplatin-resistant ovarian cancer)
Method: (§1) All compounds were dissolved in PBS at pH 7.4 to prepare 1-2 mM stock solutions. For cell viability studies, all cells were grown to 80-90% confluence, detached with trypsin/EDTA, seeded in 96-well plates at 4000-8000 cells/well in 100 μL of growth media, and incubated for 24 hours. The medium was removed and replaced with fresh medium (200 μL) containing varying dilutions of either the rhenium compounds, cisplatin, or media. The cells were then incubated for 48 hours. The medium was removed from the wells, and 3-(4,5-dimethylthiazol-2-yl)-[…] (MTT) in DMEM, RPMI, or MEM (200 μL, 1 mg/mL) was added. The additional 48 hours incubation was performed to ensure that the cells were in the logarithmic growth phase and that the cells had adequate time to regrow after exposure to the complexes. After 4 hours, the MTT/DMEM, RPMI, or MEM solution was removed, and the formazan crystals were dissolved in 200 μL of an 8:1 mixture of DMSO and pH 10 glycine buffer. The absorbance at 570 nm in each well was measured using a BioTek Synergy HT plate reader. Cell viability was determined by normalizing the absorbance of the treated wells to untreated wells. The % viability data shown is an average of three independent experiments with six replicates per concentration

[2] = system: HeLa (cervical cancer) cells; assay: MTT cell viability (cytotoxicity); format: cell-based; settings: 48 hours incubation
Method: as §1

A549 (lung cancer) cells = assay: MTT cell viability (cytotoxicity); format: cell-based; settings: 48 hours incubation
Method: as §1

[3] = system: A2780 (ovarian cancer) cells; assay: MTT cell viability (cytotoxicity); format: cell-based; settings: 48 hours incubation
Method: as §1

HEK293 (kidney) cells = assay: MTT cell viability (cytotoxicity); format: cell-based; settings: 48 hours incubation, non-cancer cell line
Method: as §1

HeLa cells [4] = system: HeLa cells
[5] = system: National Cancer Institute (NCI)-60 cell line panel
[6] = system: eIF2α phosphorylation, ATF4, CHOP in A2780 cells
Source text: (§2) Salubrinal operates by inhibiting dephosphorylation of the master regulatory protein eukaryotic initiation factor 2α (eIF2α), an integral component of the UPR. […] Next, the downstream effects of eIF2α phosphorylation were investigated. The most immediate and pronounced effect of eIF2α phosphorylation is the inhibition of translation (S. R. Kimball, Int. J. Biochem. Cell Biol. 1999, 31, 25-29).
(§3) Hyperphosphorylation of eIF2α can lead to apoptosis via upregulation of the stress-related transcription factors ATF4 and CHOP (H. Matsumoto et al., Biol. Open 2013, 2, 1084-1090). […] Phosphorylation of eIF2α also results in cell cycle arrest in the G1 phase (J. W. Brewer et al., Proc. Natl. Acad. Sci. U.S.A. 2000, 97, 12625-12630).

[7] = system: proteasome inhibition, HSP90 inhibition, reactive oxygen species generation
[8] = system: cytochrome c release from the mitochondria; settings: flow cytometry
HeLa cells [9] = settings: 5 μM, within 30 minutes, vs untreated cells
Source text: Phosphorylation of eIF2α often occurs due to the accumulation of misfolded proteins.

LC3 in A2780 cells = settings: after 24 hours
[10] = system: mutant MEF cell line incapable of eIF2α phosphorylation; settings: mutant cells after treatment
Source text: as §2

A2780 cells = system: A2780 cells
Source text: as §2

cells = settings: vs untreated cells
Source text: as §3

Compound	IC50 [1] [µM]	IC50 [2] [µM]	IC50 (A549 (lung cancer) cells) [µM]	IC50 [3] [nM]	IC50 (HEK293 (kidney) cells) [nM]	mitochondrial morphology (HeLa cells [4]; HeLa cells, 5 μM, after only 30 minutes)	mitochondrial polarization (JC-1) (HeLa cells [4]; ratiometric sensor JC-1)	activity across NCI-60 cell line panel [5]	ATF4 and CHOP expression ([6]; Western blot)	eIF2α phosphorylation ([6]; as little as 2 hours after exposure)	protein misfolding via proteasome inhibition, HSP90 inhibition, or ROS generation [7]	cytochrome c release from mitochondria [8]	fluorescence intensity of ThT (protein aggregates) (HeLa cells [9])	LC3II expression relative to LC3I (LC3 in A2780 cells)	translation levels in eIF2α mutant MEF cells [10]	puromycin incorporation (translation) (A2780 cells; 5 μM, as early as 2 hour post incubation, vs untreated controls)	factor of increase in activity in presence of salubrinal (A2780 cells; 25 μM salubrinal)	increase in population of cells in the G1 phase (cells) [%]
N.N.[Cl][Pt][Cl] [Cisplatin, cisplatin]	12 ± 3	6.6 ± 0.7	5.6 ± 0.5	1300 ± 100	1700 ± 200	–	–	–	–	–	–	–	–	–	–	–	–	–
Cc1ccc2ccc3ccc(C)nc3c2n1.[C-]#[O+].[C-]#[O+].[C-]#[O+].[Re+] [Neo-Re, [Re(CO)3(dmphen)(OH2)]^+]	6 ± 0.2	4.4 ± 1.3	7.7 ± 2.4	5700 ± 600	9000 ± 300	–	–	–	–	–	–	–	–	–	–	–	–	–
[Re(CO)3(dmphen)(p-tol-ICN)]Cl [TRIP]	1.9 ± 1	1.4 ± 0.2	1.4 ± 0.6	1700 ± 700	1900 ± 200	significantly rounded and punctate	mitochondria remained functional	most potent in melanoma and breast cancer cells lines and least effective in lung and renal cancer cell lines	both ATF4 and CHOP were upregulated	induction of eIF2α phosphorylation	no evidence has been found	Cytochrome c release occurs on the same time scale as apoptosis induction	increased significantly	large increase in LC3II expression relative to LC3I	no changes in translation levels	substantially less puromycin	4	18

Reference: patent publication US11884685B2, “Rhenium complexes and methods of use for treating cancer” (CORNELL UNIVERSITY, priority 2018, dated 2024)
